Measured values reported in paper PMC7278776, “Multidrug Resistance Modulation Activity of Silybin Derivatives and Their Anti-Inflammatory Potential” (Antioxidants, 2020).

Legend:
ABCA2 = ABCA2 mRNA expression (real-time PCR); type: cell-based, human; conditions: 10 µM, 48 h, without doxorubicin; for ABCA2 Expression Difference / ABCA2 Treated vs. Untreated: A2780/DOX
ABCB2 = ABCB2 mRNA expression (real-time PCR); type: cell-based, human; conditions: A2780/DOX, 10 µM, 48 h, without doxorubicin
ABCF2 [1] = assay: ABCF2 mRNA expression (real-time PCR); type: cell-based, human; conditions: A2780/DOX, 10 µM combined with doxorubicin at IC25, 48 h
Experimental: (§1) The A2780/DOX cell line was seeded into 5 cm Petri dishes with DMEM medium at 1 × 10^5 cell/mL. After 24 h, the dishes were washed with PBS and new DMEM medium supplemented with doxorubicin (at concentration equal to IC25) and samples (10 µM) were added. After 48 h of treatment, the cells were washed with PBS and harvested using the standard trypsin-EDTA procedure. The harvested cells were centrifuged (3200× g; 10 min, 4 °C). The supernatant was discarded, and the pellets were washed with 1.5 mL of cooled PBS (5400× g; 10 min, 4 °C). The washing step was repeated with 1 mL of PBS and the cells were centrifuged again (10,000× g; 3 min, 4 °C). Afterwards, the pellets were resuspended in 1 mL of Trizol (Invitrogen, Carlsbad, CA, USA) and transferred into pre-cooled RNase-free microfuge tubes. The samples were stored at −80 °C.
(§2) A Quant-iT RiboGreen RNA Assay Kit (Invitrogen) was used to determine the RNA concentration using the Infinite M200 plate reader (Tecan, Männedor, Switzerland). The cDNA was prepared from 0.5 µg of total RNA using a RevertAid First Strand Synthesis cDNA Kit (MBI Fermentas, Vilnius, Lithuania). The amplification of the ubiquitin C gene fragment was used to determine the quality of cDNA.
(§3) The experiment was performed using the ViiA7 Real-Time polymerase chain reaction (PCR) System (Life Technologies, Camarillo, CA, USA) with a 384-well block. Before quantitative real-time PCR, the master mix was prepared by mixing 2 µL of 8 × diluted cDNA, 1.75 µL of RNase free water, 1 µL of 5 × HotFIREPol Probe quantitative PCR Mix Plus (Solis Biodyne, Tartu, Estonia) and 0.25 µL of specific 20 × TaqMan Gene Expression Assay (Life Technologies), giving 5 µL of final reaction volume. Cycling parameters were: initial hold at 50 °C for 2 min and denaturation at 95 °C for 10 min, followed by 45 cycles consisting of denaturation at 95 °C for 15 s and annealing/extension at 60 °C for 1 min. After each extension phase, the fluorescence values were acquired. Duplicate samples were used for measurement and samples with a standard deviation of duplicates > 1.0 cycle threshold (Ct) were re-analyzed. The real time PCR procedure was maintained according to MIQE (Minimum information for publication of quantitative real-time PCR experiments) guidelines. The software REST 2009 (Qiagen, Hilden, Germany) served to compare relative transcript levels of genes in the cell line.

ABCF2 [2] = assay: ABCF2 mRNA expression (real-time PCR); type: cell-based, human; conditions: A2780/DOX, 10 µM, 48 h, without doxorubicin
ABCA3 = ABCA3 mRNA expression (real-time PCR); type: cell-based, human; conditions: A2780/DOX
Experimental: as §1, §2, §3

ABCF1 = ABCF1 mRNA expression (real-time PCR); type: cell-based, human; conditions: A2780/DOX
Experimental: as §1, §2, §3

ABCB9 = ABCB9 mRNA expression (real-time PCR); type: cell-based, human; conditions: A2780/DOX, 10 µM, 48 h, without doxorubicin
[3] = Viability of A2780/DOX cells (resazurin); conditions: human
Experimental: To determine the NO production, the medium was mixed with Griess reagent (0.04 g/mL, prepared in deionized water) in a 1:1 ratio. After 15 min, absorbance was recorded at 540 nm. To determine cell viability, the resazurin solution (0.03 mg/mL in PBS) was added to the cells. After 2 h of incubation, fluorescence was recorded (560/590 nm, ex./em.).
A multidrug resistant ovarian sub-line resistant to doxorubicin (A2780/DOX, Sigma-Aldrich) was cultivated in DMEM medium with 10% FBS and 1 × antibiotic antimycotic solution. Every other passage, doxorubicin at the final concentration of 0.1 µM was added to the culture medium to maintain the resistance of the cell line. To perform experiments, the cells were seeded at 1 × 10^5 cell/mL into the wells of a 96-well plate and incubated for 24 h. Afterwards, the cells were washed with PBS and fresh DMEM medium with tested compounds at 10, 20 and 30 µM were added to each well, except for the control wells. Subsequently, the cells were exposed to increasing concentrations of doxorubicin (0.6–20 µM) for 72 h. After incubation, the resazurin assay was performed as described above. The IC50 of doxorubicin was calculated for both the control and the samples and the fold change was counted up. […] The fold change lower than 1 means an antagonistic effect. (1) FOLD CHANGE=IC50 value of DOX cells treated with chemotherapeutic /IC50 value of DOX cells treated with chemotherapeutic and compound

[4] = design: method as in PMID 15465345, PMID 19138735; conditions: cited from earlier work
ABCE1 = ABCE1 mRNA expression (real-time PCR); type: cell-based, human; conditions: A2780/DOX, 10 µM, 48 h, without doxorubicin
Experimental: as §1, §2, §3

ABCC5 = ABCC5 mRNA expression (real-time PCR); type: cell-based, human; conditions: A2780/DOX, 10 µM, 48 h, without doxorubicin
ABCB7 = ABCB7 mRNA expression (real-time PCR); type: cell-based, human; conditions: A2780/DOX, 10 µM, 48 h, without doxorubicin
Experimental: as §1, with “After 24 h, the dishes were washed with PBS and new DMEM medium supplemented with doxorubicin (at concentration equal to IC25) and samples (10 µM) were added.” left out
(§4) A Quant-iT RiboGreen RNA Assay Kit (Invitrogen) was used to determine the RNA concentration using the Infinite M200 plate reader (Tecan, Männedor, Switzerland). […]
(§5) The experiment was performed using the ViiA7 Real-Time polymerase chain reaction (PCR) System (Life Technologies, Camarillo, CA, USA) with a 384-well block. Before quantitative real-time PCR, the master mix was prepared by mixing 2 µL of 8 × diluted cDNA, 1.75 µL of RNase free water, 1 µL of 5 × HotFIREPol Probe quantitative PCR Mix Plus (Solis Biodyne, Tartu, Estonia) and 0.25 µL of specific 20 × TaqMan Gene Expression Assay (Life Technologies), giving 5 µL of final reaction volume. […] After each extension phase, the fluorescence values were acquired. […]

ABCB8 = ABCB8 mRNA expression (real-time PCR); type: cell-based, human; conditions: A2780/DOX, 10 µM, 48 h, without doxorubicin
Experimental: as §1, with “After 24 h, the dishes were washed with PBS and new DMEM medium supplemented with doxorubicin (at concentration equal to IC25) and samples (10 µM) were added.” left out
as §2
as §5, with “acquired. Duplicate samples were used for measurement and samples with a standard deviation of duplicates > 1.0 cycle threshold (Ct) were re-analyzed. The real time PCR procedure was maintained according to MIQE (Minimum information for publication of quantitative real-time PCR experiments) guidelines.” for “acquired.”

ABCA7 = ABCA7 mRNA expression (real-time PCR); type: cell-based, human; conditions: A2780/DOX, 10 µM, 48 h, without doxorubicin
Experimental: as §1, with “After 24 h, the dishes were washed with PBS and new DMEM medium supplemented with doxorubicin (at concentration equal to IC25) and samples (10 µM) were added.” left out
as §4, §5

ABCD4 = ABCD4 mRNA expression (real-time PCR); type: cell-based, human; conditions: A2780/DOX, 10 µM, 48 h, without doxorubicin
Experimental: as §1, §2
as §5, with “acquired. Duplicate samples were used for measurement and samples with a standard deviation of duplicates > 1.0 cycle threshold (Ct) were re-analyzed. The real time PCR procedure was maintained according to MIQE (Minimum information for publication of quantitative real-time PCR experiments) guidelines.” for “acquired.”

ABC superfamily genes = assay: Expression profile of ABC superfamily genes (real-time PCR); type: cell-based, human; conditions: 10 µM, 48 h, without doxorubicin
Experimental: as §1, with “After 24 h, the dishes were washed with PBS and new DMEM medium supplemented with doxorubicin (at concentration equal to IC25) and samples (10 µM) were added.” left out
as §4, §5

ABCC2 (MRP2) = assay: ABCC2 mRNA expression (real-time PCR); type: cell-based, human; conditions: 10 µM, 48 h, without doxorubicin
Experimental: as §1, with “After 24 h, the dishes were washed with PBS and new DMEM medium supplemented with doxorubicin (at concentration equal to IC25) and samples (10 µM) were added.” left out
as §2
as §5, with “acquired. Duplicate samples were used for measurement and samples with a standard deviation of duplicates > 1.0 cycle threshold (Ct) were re-analyzed. The real time PCR procedure was maintained according to MIQE (Minimum information for publication of quantitative real-time PCR experiments) guidelines.” for “acquired.”

[5] = 10 µM combined with doxorubicin at IC25, 48 h
[6] = 10 µM, 48 h, without doxorubicin

| SMILES | downregulation of ABCA2 expression (ABCA2) [%] | ABCA2 Expression Difference (ABCA2) | ABCA2 Treated vs. Untreated (ABCA2) | ABCB2 Expression Difference (ABCB2) | ABCF2 Expression Difference (ABCF2 [1]) | ABCF2 Expression Difference (ABCF2 [2]) | ABCA3 Expression Difference (ABCA3; [5]) | ABCF1 Expression Difference (ABCF1; [5]) | ABCB9 Expression Difference (ABCB9) | ABCE1 Expression Difference (ABCE1) | ABCF1 Expression Difference (ABCF1; [6]) | ABCF1 Treated vs. Untreated (ABCF1; [6]) | ABCC5 Expression Difference (ABCC5) | viability at 20 µM [3] [%] | ABCB7 Expression Difference (ABCB7) | ABCB8 Expression Difference (ABCB8) | ABCD4 Expression Difference (ABCD4) | also measured |
| --- | --- | --- | --- | --- | --- | --- | --- | --- | --- | --- | --- | --- | --- | --- | --- | --- | --- | --- |
| COc1cc([C@H]2Oc3cc(-c4oc5cc(O)cc(O)c5c(=O)c4O)ccc3O[C@@H]2CO)ccc1O [Dehydrosilybin A, 2,3-dehydrosilybin A] | 22 | 0.778 | DOWN | 1.905 | 1.044 | 1.198 | 1.042 | 0.920 | 1.317 | – | – | – | – | – | – | – | – | viability at 50 µM [3]: < 80% |
| COc1cc(C2Oc3cc(-c4oc5cc(O)cc(O)c5c(=O)c4O)ccc3OC2CO)ccc1O (stereo not shown) [Dehydrosilybin AB, 2,3-dehydrosilybin] | – | – | – | 2.341 | 1.343 | 1.418 | 0.943 | 0.923 | 1.669 | 1.408 | 0.322 | DOWN | 1.519 | < 80 | 1.463 | – | – | inhibition of lipid peroxidation compared to silybin [4]: 10 fold |
| COc1cc([C@@H]2Oc3cc(-c4oc5cc(O)cc(O)c5c(=O)c4O)ccc3O[C@H]2CO)ccc1O [Dehydrosilybin B, 2,3-dehydrosilybin B] | 11 | 0.891 | DOWN | 1.625 | 1.226 | 1.334 | 1.060 | 0.784 | – | – | – | – | – | < 80 | – | – | – | – |
| COc1cc([C@H]2Oc3cc([C@H]4Oc5cc(O)cc(O)c5C(=O)[C@@H]4O)ccc3O[C@@H]2CO)ccc1O [Silybin A, silybin A] | – | 1.078 | – | 1.141 | 1.242 | – | – | – | – | – | – | – | – | – | – | – | – | – |
| COc1cc(C2Oc3cc([C@H]4Oc5cc(O)cc(O)c5C(=O)[C@@H]4O)ccc3OC2CO)ccc1O (stereo partly shown) [Silybin AB, silybin] | – | 2.583 | – | – | 1.463 | 1.326 | 1.142 | 0.137 | 2.091 | 1.558 | – | – | 1.819 | – | 1.803 | 1.503 | 1.882 | ABCA7 Expression Difference (ABCA7): 2.704; ABCF1 Treated vs. Untreated (ABCF1; [5]): DOWN; number of ABC genes with increased expression (ABC superfamily genes): 20 |
| COc1cc([C@@H]2Oc3cc([C@H]4Oc5cc(O)cc(O)c5C(=O)[C@@H]4O)ccc3O[C@H]2CO)ccc1O [Silybin B, silybin B] | – | 0.520 | DOWN | – | – | 0.307 | 0.794 | – | 0.392 | 0.391 | 0.260 | DOWN | 0.365 | – | – | 0.413 | 0.370 | ABCB8 Treated vs. Untreated (ABCB8): DOWN; ABCD4 Treated vs. Untreated (ABCD4): DOWN; ABCE1 Treated vs. Untreated (ABCE1): DOWN; ABCF2 Treated vs. Untreated (ABCF2 [2]): DOWN; ABCA3 Treated vs. Untreated (ABCA3; [5]): DOWN; ABCA3 Expression Difference (ABCA3; [6]): 0.228; ABCA3 Treated vs. Untreated (ABCA3; [6]): DOWN; downregulation of ABCC2 (MRP2) expression (ABCC2 (MRP2)): 66%; ABCC2 Expression Difference (ABCC2 (MRP2); A2780/DOX): 0.341; ABCC2 Treated vs. Untreated (ABCC2 (MRP2); A2780/DOX): DOWN; ABCB9 Treated vs. Untreated (ABCB9): DOWN; ABCC5 Treated vs. Untreated (ABCC5): DOWN; number of ABC genes with altered expression (ABC superfamily genes; out of 42 tested): 24 |
